Results on 5 compounds are retold here after US5656662A, “Synthesis of optically pure 4-alkenyl- or 4-alkanyl-2-hydroxytetronic acids” (The Ohio State University Research Foundation, priority 1995, dated 1997).

Assay [1] deals with human platelet. As to conditions: cited from earlier work; for IC50: literature, read-out: IC50, inhibition of AA-induced platelet aggregation.
Assay [2] concerns human platelet-rich plasma. As to the kind of experiment: Inhibition of arachidonic acid-induced aggregation in human platelet-rich plasma. The assay is classed as cell-based. As for the experimental part: The R- and S-enantiomers were tested as inhibitors of arachidonic acid-induced aggregation in human platelet-rich plasma. Data for individual experiments (2 separate donors) are given as pIC50 (log molar inhibitory concentration of each drug which blocks aggregation to arachidonic acid by 50%) Inhibitors were preincubated for 1 minute prior to addition of arachidonic acid (200-400 μM). Changes in light transmission were measured as an index of aggregation and quantified after 4 minutes.

For assay [3], the system named is platelet function. As to conditions: cited from earlier work.
[4] abbreviates: Homo sapiens, arithmetic average of raw data, N = 3, read-out: inhibitory concentration which blocks aggregation by 50%, AVE.
Setting [5] is: Homo sapiens, average, N = 3, read-out: pIC50 (-1xLOG(0.000001xDATA)), AVE (converted).
The mark [6] stands for this setting: Homo sapiens, geometric mean, N = 3, read-out: inhibitory concentration which blocks aggregation by 50%, back-transformed data (Geometric mean) AVE.

Several values for one entry are separate records, joined by “and”; a condition that tells them apart may be missing. Equal values may be shown once. Read-outs that look alike come from different tables or passages of the source.

As to `O=C1OC(c2ccc(-c3ccc(Cl)cc3)cc2)C(O)=C1O` (centres unmarked) [4-(4'-chlorobiphenyl)-2-hydroxytetronic acids], in assay [1], the IC50 is 44 µM.

As to `CCCCC/C=C\C/C=C\C/C=C\C/C=C\CC[C@H]1OC(=O)C(O)=C1O` [(R)-3,4-Dihydroxy-5-[all-Z)-3,6,9,12-octadecatetraenyl]-2(51H)-furanone], the IC50 in assay [2] (setting [4]) was 653 µM; in assay [2] (setting [5]), 647 µM; in assay [2] (setting [6]), 647 µM; in assay [2] (Homo sapiens, individual experiments, human platelet-rich plasma, arachidonic acid 200-400 μM, 1 minute preincubation, quantified after 4 minutes, read-out: inhibitory concentration which blocks aggregation to arachidonic acid by 50% (RAW DATA)), 764 µM; in assay [2] (Homo sapiens, individual experiments, human platelet-rich plasma, arachidonic acid 200-400 μM, read-out: pIC50 (-1xLOG(0.000001xDATA)) (converted)), 764 µM; in assay [2] (individual experiments, human platelet-rich plasma, arachidonic acid 200-400 μM, 1 minute preincubation, quantified after 4 minutes, read-out: inhibitory concentration which blocks aggregation to arachidonic acid by 50% (RAW DATA)), 538 µM and 657 µM. Moreover, in assay [2] (individual experiments, human platelet-rich plasma, arachidonic acid 200-400 μM), the “pIC50 (-1xLOG(0.000001xDATA))” value is 3.269 and 3.182.

Consider `CCCCC/C=C\C/C=C\C/C=C\C/C=C\CC[C@@H]1OC(=O)C(O)=C1O` [(S)-3,4 -Dihydroxy-5-[(all-Z)-3,6,9,12-octadecatetraenyl]-2 (5H)-furanone], for which the figures for the IC50 in assay [2] (setting [4]), in assay [2] (setting [5]) and in assay [2] (setting [6]) were 2.27 µM, 1.45 µM and 1.45 µM, respectively.

Consider `O=C1OC(c2ccc(Cl)cc2)C(O)=C1O` (centres unmarked) [CHTA, 4-(4-chlorophenyl)-2-hydroxytetronic acid], for which the “inhibition of platelet function” value in assay [3] is “inhibits platelet function by both enzyme inhibitory and ROS scavenging mechanisms resulting ultimately in the blockage of thromboxane A2 synthesis”. Further, the “antilipidemic and antiaggregatory properties” value in assay [1] is “possesses antilipidemic and antiaggregatory properties”.

Take `O=C1OC(c2ccc(-c3ccccc3)cc2)C(O)=C1O` (centres unmarked) [Example 4-biphenyl]: in assay [1], the IC50 is 135 µM.
